Results as given in article PMC3982590 (Biochemistry, 2013).

Target: T1, TtPFK (Thermus thermophilus, UniProt P21777, L313W)
T1 sequence (P21777 1-322 L313W): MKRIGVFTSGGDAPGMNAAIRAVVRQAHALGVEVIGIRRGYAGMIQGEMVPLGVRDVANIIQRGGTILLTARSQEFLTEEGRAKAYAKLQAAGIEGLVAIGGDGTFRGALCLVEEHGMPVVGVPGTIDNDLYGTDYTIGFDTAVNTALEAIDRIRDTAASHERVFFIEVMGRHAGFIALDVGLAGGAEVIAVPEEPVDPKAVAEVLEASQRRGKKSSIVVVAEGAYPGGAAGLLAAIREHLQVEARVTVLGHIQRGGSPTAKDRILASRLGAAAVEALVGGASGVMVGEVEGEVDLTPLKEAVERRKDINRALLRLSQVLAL
Assay: intrinsic tryptophan fluorescence titration
Type: binding

Structure (SMILES): C=C(OP(=O)(O)O)C(=O)O [PEP]
- Kd: 660 ± 60 nM
